Ends that are not written are not given here.
Tests used:
[1] = system: S. aureus ATCC BAA-1683 (MRSA SCCmec type IV); assay: MIC, broth dilution; format: cell-based, Staphylococcus aureus; details: Table 5; STIP3 variants, highest concentration 100 μg/mL
Summary of the method: (§1)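 Peptides of 95% purity tested as 2-fold dilution series against bacteria diluted to OD 6×10^−4 in cation-adjusted Mueller Hinton broth. Standing cultures incubated overnight at 37° C; MIC is the lowest concentration with no visible growth.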

[2] = system: S. aureus ATCC BAA-42 (MRSA SCCmec type VI); assay: MIC, broth dilution; format: cell-based, Staphylococcus aureus; details: Table 5; STIP3 variants, highest concentration 100 μg/mL
Summary of the method: as §1

S. aureus ATCC 29213 = assay: MIC, broth dilution; format: cell-based, Staphylococcus aureus; details: Table 5; STIP3 variants, highest concentration 100 μg/mL
Summary of the method: as §1

[3] = system: S. aureus ATCC 33592 (MRSA SCCmec type III); assay: MIC, broth dilution; format: cell-based, Staphylococcus aureus; details: Table 5; STIP3 variants, highest concentration 100 μg/mL
Summary of the method: as §1

[4] = system: S. aureus ATCC BAA-44 (MRSA SCCmec type I); assay: MIC, broth dilution; format: cell-based, Staphylococcus aureus; details: Table 5; STIP3 variants, highest concentration 100 μg/mL
Summary of the method: as §1

[5] = system: S. aureus ATCC BAA-2094 (MRSA SCCmec type V); assay: MIC, broth dilution; format: cell-based, Staphylococcus aureus; details: Table 5; STIP3 variants, highest concentration 100 μg/mL
Summary of the method: as §1

[6] = system: S. aureus ATCC BAA-2313 (MRSA SCCmec type XI); assay: MIC, broth dilution; format: cell-based, Staphylococcus aureus; details: Table 5; STIP3 variants, highest concentration 100 μg/mL
Summary of the method: as §1

[7] = system: S. aureus ATCC BAA-41 (MRSA SCCmec type II); assay: MIC, broth dilution; format: cell-based, Staphylococcus aureus; details: Table 5; STIP3 variants, highest concentration 100 μg/mL
Summary of the method: as §1

C. albicans MYA-2876 = assay: MIC, YPD broth; format: cell-based, Candida albicans; details: Table 8
Summary of the method: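 Yeast cells were diluted in YPD broth, and 180 μl aliquots were mixed with 20 μl of peptide from 2-fold serial dilutions in flat-bottom 96-well microtitre plates. Wells receiving 20 μl sterile water served as controls. After standing incubation overnight at 37° C, the MIC was taken as the lowest peptide concentration with no visible microbial growth.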

[8] = system: Saccharomyces cerevisiae AR 400; assay: MIC, YPD broth, CDC and FDA AR Candida isolate panel; format: cell-based
Summary of the method: (§2)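 Inhibitory concentration was assigned over a 2-fold peptide dilution range after incubation without shaking at 37° C overnight; inoculum was set to optical density […] and water-only wells served as control.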

[9] = system: Candida duobushaemulonii AR 391; assay: as above; format: cell-based
Summary of the method: as §2

[10] = system: Candida haemulonii AR 395; assay: as above; format: cell-based; details: Table 9 below the line: only 200 or 100 μg/mL tested; values reported as 100 are ≤100 μg/mL
Summary of the method: as §2

[11] = system: Candida lusitaniae AR 398; assay: as above; format: cell-based
Summary of the method: as §2

Kodamae ohmeri AR 396 = assay: as above; format: cell-based
Summary of the method: as §2

[12] = system: Saccharomyces cerevisiae AR 399; assay: as above; format: cell-based
Summary of the method: as §2

[13] = system: Candida duobushaemulonii AR 392; assay: as above; format: cell-based
Summary of the method: as §2

Candida krusei AR 397 = assay: as above; format: cell-based
Summary of the method: as §2

[14] = system: Candida duobushaemulonii AR 394; assay: as above; format: cell-based
Summary of the method: as §2

[15] = system: Candida haemulonii AR 393; assay: as above; format: cell-based; details: Table 9 below the line: only 200 or 100 μg/mL tested; values reported as 100 are ≤100 μg/mL
Summary of the method: as §2

[16] = system: Mannheimia haemolytica ATCC 33393; assay: MIC, broth dilution; format: cell-based; details: Table 11; highest concentration 25 μg/mL
Summary of the method: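 Read-out is the lowest peptide concentration showing no growth after an overnight standing culture at 37 °C. Two-fold serial dilutions of 95%-pure peptide were tested against M. haemolytica ATCC 33393 at OD 6×10^−4 in cation-adjusted MH broth.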

[17] = Circular dichroism spectroscopy; format: physicochemical; details: CD, 50% (v/v) TFE
Description: The δ-toxins and the PSMs are characterized as α-helical peptides that form amyloid fibers^48. Although the propensity of individual peptides to form amyloids is correlated to their cytotoxicity^49, the amyloid form is not directly implicated in cell membrane disruption^50. […] CD spectroscopy was used to investigate the secondary structure of a subset of peptides within the collection (FIG. 4A, Table 5). The STIP variants adopted α-helical forms in 50% (v/v) trifluoroethanol (TFE), though unlike the full-length S. auricularis δ-toxin, they were unstructured in water. […] Specifically, peptides characterized by the greatest and least α-helical content in TFE had MICs above the highest tested threshold.
Circular dichroism spectroscopy. Peptides were dissolved in water at concentrations between 0.3 and 0.5 mg/mL. CD spectra were recorded on an Applied Photophysics Chirascan Plus CD spectrophotometer at room temperature in a 0.1 cm path-length quartz cuvette. Spectra were recorded from 180 to 260 nm.

C. albicans Y537 = assay: MIC, YPD broth; format: cell-based, Candida albicans; details: Table 8
[18] = Table 9 below the line: only 200 or 100 μg/mL tested, values reported as 100 are ≤100 μg/mL
[19] = Table 9 top part: titrations from 1.56 to 100 μg/mL

TVKGLVKWILATVKKFA [STIP3-16, TVKGLVKWILATVKKFA]
MIC S. aureus ATCC BAA 1683 (IV) [1]: > (no inhibition was observed at the highest concentration of peptide tested: 100 μg/mL for the STIP3 variants)
MIC S. aureus ATCC BAA 42 (VI) [2]: 50 µg/mL
MIC S. aureus ATCC 29213 (S. aureus ATCC 29213): 100 µg/mL
MIC S. aureus ATCC 33592 (III) [3]: 50 µg/mL
MIC S. aureus ATCC BAA 44 (I) [4]: 100 µg/mL
MIC S. aureus ATCC BAA 2094 (V) [5]: 100 µg/mL
MIC S. aureus ATCC BAA 2313 (XI) [6]: 100 µg/mL
MIC S. aureus ATCC BAA 41 (II) [7]: 50 µg/mL
MIC C. albicans MYA-2876 (C. albicans MYA-2876): 12.5 µg/mL
MIC (μg/mL) Saccharomyces cerevisiae AR 400 [8, 18]: ≤ 100 µg/mL
MIC (μg/mL) Candida duobushaemulonii AR 391 [9, 18]: > (values below the line were determined using two concentrations of peptide 200 or 100 μg/mL)
MIC (μg/mL) Candida haemulonii AR 395 [10]: > (values below the line were determined using two concentrations of peptide 200 or 100 μg/mL)
MIC (μg/mL) Candida lusitaniae AR 398 [11, 18]: ≤ 100 µg/mL
MIC (μg/mL) Kodamae ohmeri AR 396 (Kodamae ohmeri AR 396; [18]): ≤ 100 µg/mL
MIC (μg/mL) Saccharomyces cerevisiae AR 399 [12, 18]: ≤ 100 µg/mL
MIC (μg/mL) Candida duobushaemulonii AR 392 [13, 18]: > (values below the line were determined using two concentrations of peptide 200 or 100 μg/mL)
MIC (μg/mL) Candida krusei AR 397 (Candida krusei AR 397; [18]): ≤ 100 µg/mL
MIC (μg/mL) Candida duobushaemulonii AR 394 [14, 18]: > (values below the line were determined using two concentrations of peptide 200 or 100 μg/mL)
MIC (μg/mL) Candida haemulonii AR 393 [15]: > (values below the line were determined using two concentrations of peptide 200 or 100 μg/mL)
MIC (μg/mL) M. haemolytica [16]: 6.25 µg/mL
α helicity (%) [17]: 45%

TVKGLVKWILNVVKKFA [STIP3-14, TVKGLVKWILNVVKKFA]
MIC S. aureus ATCC BAA 1683 (IV) [1]: 25 µg/mL
MIC S. aureus ATCC BAA 42 (VI) [2]: 25 µg/mL
MIC S. aureus ATCC 29213 (S. aureus ATCC 29213): 25 µg/mL
MIC S. aureus ATCC 33592 (III) [3]: 12.5 µg/mL
MIC S. aureus ATCC BAA 44 (I) [4]: 25 µg/mL
MIC S. aureus ATCC BAA 2094 (V) [5]: 50 µg/mL
MIC S. aureus ATCC BAA 2313 (XI) [6]: 12.5 µg/mL
MIC S. aureus ATCC BAA 41 (II) [7]: 25 µg/mL
MIC C. albicans Y537 (C. albicans Y537): 50 µg/mL
MIC C. albicans MYA-2876 (C. albicans MYA-2876): 12.5 µg/mL
MIC (μg/mL) Saccharomyces cerevisiae AR 400 [8, 19]: 6.25 µg/mL
MIC (μg/mL) Candida duobushaemulonii AR 391 [9, 19]: 50 µg/mL
MIC (μg/mL) Candida lusitaniae AR 398 [11, 19]: 6.25 µg/mL
MIC (μg/mL) Kodamae ohmeri AR 396 (Kodamae ohmeri AR 396; [19]): 25 µg/mL
MIC (μg/mL) Saccharomyces cerevisiae AR 399 [12, 19]: 25 µg/mL
MIC (μg/mL) Candida duobushaemulonii AR 392 [13, 19]: 50 µg/mL
MIC (μg/mL) Candida krusei AR 397 (Candida krusei AR 397; [19]): 12.5 µg/mL
MIC (μg/mL) Candida duobushaemulonii AR 394 [14, 19]: 100 µg/mL
α helicity (%) [17]: 64%

TVKKLVKWILKTVKKFA [STIP3-18, TVKKLVKWILKTVKKFA]
MIC S. aureus ATCC BAA 1683 (IV) [1]: > (no inhibition was observed at the highest concentration of peptide tested: 100 μg/mL for the STIP3 variants)
MIC S. aureus ATCC BAA 42 (VI) [2]: > (no inhibition was observed at the highest concentration of peptide tested: 100 μg/mL for the STIP3 variants)
MIC S. aureus ATCC 29213 (S. aureus ATCC 29213): 100 µg/mL
MIC S. aureus ATCC 33592 (III) [3]: 100 µg/mL
MIC S. aureus ATCC BAA 44 (I) [4]: 100 µg/mL
MIC S. aureus ATCC BAA 2094 (V) [5]: 100 µg/mL
MIC S. aureus ATCC BAA 2313 (XI) [6]: > (no inhibition was observed at the highest concentration of peptide tested: 100 μg/mL for the STIP3 variants)
MIC S. aureus ATCC BAA 41 (II) [7]: 100 µg/mL
MIC C. albicans Y537 (C. albicans Y537): > (> symbol indicates that no inhibition was observed at the highest concentration of peptide tested: 100 μg/mL)
MIC C. albicans MYA-2876 (C. albicans MYA-2876): 50 µg/mL
MIC (μg/mL) Saccharomyces cerevisiae AR 400 [8, 18]: ≤ 100 µg/mL
MIC (μg/mL) Candida duobushaemulonii AR 391 [9, 18]: ≤ 100 µg/mL
MIC (μg/mL) Candida haemulonii AR 395 [10]: > (values below the line were determined using two concentrations of peptide 200 or 100 μg/mL)
MIC (μg/mL) Candida lusitaniae AR 398 [11, 18]: ≤ 100 µg/mL
MIC (μg/mL) Kodamae ohmeri AR 396 (Kodamae ohmeri AR 396; [18]): > (values below the line were determined using two concentrations of peptide 200 or 100 μg/mL)
MIC (μg/mL) Saccharomyces cerevisiae AR 399 [12, 18]: ≤ 100 µg/mL
MIC (μg/mL) Candida duobushaemulonii AR 392 [13, 18]: ≤ 100 µg/mL
MIC (μg/mL) Candida krusei AR 397 (Candida krusei AR 397; [18]): ≤ 100 µg/mL
MIC (μg/mL) Candida duobushaemulonii AR 394 [14, 18]: ≤ 100 µg/mL
MIC (μg/mL) Candida haemulonii AR 393 [15]: > (values below the line were determined using two concentrations of peptide 200 or 100 μg/mL)
MIC (μg/mL) M. haemolytica [16]: 6.25 µg/mL

TVRALVKWILRTVAKFA [STIP3-20, TVRALVKWILRTVAKFA]
MIC S. aureus ATCC BAA 1683 (IV) [1]: 25 µg/mL
MIC S. aureus ATCC BAA 42 (VI) [2]: 25 µg/mL
MIC S. aureus ATCC 29213 (S. aureus ATCC 29213): 25 µg/mL
MIC S. aureus ATCC 33592 (III) [3]: 25 µg/mL
MIC S. aureus ATCC BAA 44 (I) [4]: 25 µg/mL
MIC S. aureus ATCC BAA 2094 (V) [5]: 25 µg/mL
MIC S. aureus ATCC BAA 2313 (XI) [6]: 50 µg/mL
MIC S. aureus ATCC BAA 41 (II) [7]: 12.5 µg/mL
MIC C. albicans Y537 (C. albicans Y537): > (> symbol indicates that no inhibition was observed at the highest concentration of peptide tested: 100 μg/mL)
MIC C. albicans MYA-2876 (C. albicans MYA-2876): > (> symbol indicates that no inhibition was observed at the highest concentration of peptide tested: 100 μg/mL)
MIC (μg/mL) Saccharomyces cerevisiae AR 400 [8, 18]: 200 µg/mL
MIC (μg/mL) Candida duobushaemulonii AR 391 [9, 18]: > (values below the line were determined using two concentrations of peptide 200 or 100 μg/mL)
MIC (μg/mL) Candida haemulonii AR 395 [10]: > (values below the line were determined using two concentrations of peptide 200 or 100 μg/mL)
MIC (μg/mL) Candida lusitaniae AR 398 [11, 18]: > (values below the line were determined using two concentrations of peptide 200 or 100 μg/mL)
MIC (μg/mL) Kodamae ohmeri AR 396 (Kodamae ohmeri AR 396; [18]): > (values below the line were determined using two concentrations of peptide 200 or 100 μg/mL)
MIC (μg/mL) Saccharomyces cerevisiae AR 399 [12, 18]: > (values below the line were determined using two concentrations of peptide 200 or 100 μg/mL)
MIC (μg/mL) Candida duobushaemulonii AR 392 [13, 18]: > (values below the line were determined using two concentrations of peptide 200 or 100 μg/mL)
MIC (μg/mL) Candida krusei AR 397 (Candida krusei AR 397; [18]): > (values below the line were determined using two concentrations of peptide 200 or 100 μg/mL)
MIC (μg/mL) Candida duobushaemulonii AR 394 [14, 18]: > (values below the line were determined using two concentrations of peptide 200 or 100 μg/mL)
MIC (μg/mL) Candida haemulonii AR 393 [15]: > (values below the line were determined using two concentrations of peptide 200 or 100 μg/mL)
MIC (μg/mL) M. haemolytica [16]: 25 µg/mL
